Each block holds one compound with its values, some of them ahead of it. Peptide text beside a SMILES is read from it.
Key:
α-synuclein [1] = settings: cited from earlier work
α-synuclein [2] = biological target: T1, α-synuclein (Homo sapiens, UniProt P37840); assay: light scattering assay at 330 nm (total aggregation); assay type: biochemical; settings: 5-fold molar excess of peptide, 10 mM Tris-HCl pH 7.4, 0.02% NaN3, 37°C, shaking
T1 construct: made in house; host or cells: Escherichia coli BL21(DE3)
Procedure: (§1) To determine the effect of peptides on α-synuclein aggregation, we co-incubated α-synuclein with 5-fold molar excess of the screened peptides. The α-synuclein fibril amounts were evaluated by Thioflavin T (TfT) binding assay. It is known that when TfT binds to amyloid fibrils, the fluorescence intensity around 480 nm increases. […] Next, to determine whether or not these increases in fluorescence intensity depend on the fibril amount, we examined the aggregation amount by a light scattering assay at 330 nm. The value of optical density at 330 nm of the α-synuclein solution with the top peptides was also higher compared with that of the α-synuclein solution without peptide, as shown in Figure 4.
Figure 4 Light scattering assay. […] 100% is the optical density at 330 nm of α-synuclein without peptide. […]
(§2) All the protein samples were concentrated to approximately 4.0 mg/ml by means of Amicon Ultra-15 filters (Millipore) in 10 mM Tris-HCl, pH 7.4, and centrifuged at 150,000 g for 60 min to remove the insoluble aggregates. […] Fibril formation was monitored by thioflavin T (TfT) fluorescence: 10 μl aliquots were sampled from the incubated samples and added to 1.0 ml of 25 μM TfT in 10 mM Tris buffer, pH 7.4. Fluorescence emission was measured at 485 nm at an excitation wavelength of 450 nm on a FP6500 spectrofluorometer (JASCO). […]

α-synuclein [3] = biological target: T1, α-synuclein; assay: Thioflavin T (TfT) binding assay of α-synuclein fibril formation; assay type: biochemical; settings: α-synuclein 140 μM, peptide 700 μM (5-fold molar excess), 10 mM Tris-HCl pH 7.4, 0.02% NaN3, 37°C, shaking; 25 μM TfT
Procedure: as §1
Figure 3 Time course of α-synuclein fibril formation. […] 100% is the final fluorescence intensity of α-synuclein without peptide. […]
as §2

α-synuclein [4] = biological target: T1, α-synuclein; assay: surface plasmon resonance binding (CM5 sensor chip); settings: Scatchard plot; for affinity to α-synuclein (in words): peptide immobilized on CM5 chip by amine coupling, α-synuclein injected
Procedure: The affinities of the screened peptides were determined by surface plasmon resonance measurement. The screened peptides were immobilized on a CM5 sensor chip by amine coupling. […] Thus, we added an alanine residue to the N-terminals of these peptides to immobilize them on the CM5 sensor chip and evaluated them. The dissociation constants were determined using a Scatchard plot. […] In the case of PTYF, its KD was more than 10 times that of QSTQ. Since docking simulation still has problems inaccuracy, we have to evaluate several peptides to find good ligands. In this study, we can obtain the high affinity peptide by assaying the top 4 peptides.
Human wild-type α-synuclein expressed in Escherichia coli BL21(DE3) cells transformed the pET28a/human α-synuclein WT plasmid. Following induction with 1 mM isopropyl-1-thio-β-D-galactopyranoside, the α-synuclein was purified by anion exchange chromatography. The bacterial cells were harvested by centrifugation at 5,000 g for 10 min and lysed in 500 mM NaCl, 20 mM Tris-HCl, pH 8.0, and 1 mM EDTA. The lysate was then boiled for 20 min, and centrifuged for 10 min at 20,000 g. The supernatant was dialyzed against 20 mM Tris-HCl, pH 8.0, loaded onto a ResourseQ 6-ml column (Amersham Biosciences) equilibrated in the same buffer, and eluted with a 0 ~1 M NaCl gradient. The α-synuclein-containing fraction was dialyzed against 10 mM Tris-HCl, pH 7.4.
All peptides were immobilized onto the CM5 sensor chip by amine coupling. The CM5 sensor chip (Biacore) was activated by an equimolar mix of NHS (N-hydroxysuccinimide) and EDC (N-ethyl-N'-(dimethylaminopropyl) carbodiimide), coupled with 100 μg/mL of the synthesized peptide in pH-6.0 sodium acetate buffer, and then blocked with ethanolamine. For reference, only activation and protection was carried out, in the same way as mentioned above. The final coupling level of each peptide was approximately 100 RU. Each of the α-synuclein solutions was injected, and at different concentrations a signal increase was observed. The sensor surface was regenerated using 0.5% SDS. The dissociation constants were determined using a Scatchard plot and an equilibrium point.

[5] = test system: α-synuclein 68–78 (GAVVTGVTAVA); settings: ref [14]; cited from earlier work
Description: To obtain an effective peptidic aggregation inhibitor, the peptide should bind to the region that plays an important role in amyloid fibril formation. The hydrophobic central region of α-synuclein called the "non-amyloid-β component of the amyloid plaque" (NAC) (residues 61–95) is the most important region in the formation of amyloid-like fibrils.

- optical density at 330 nm relative to solution without peptide (α-synuclein [2]): more than 1.5 times
- fluorescence intensity of TfT relative to solution without peptide (α-synuclein [3]): more than 1.5 times
Compound: C[C@@H](O)[C@H](NC(=O)[C@H](CO)NC(=O)[C@@H](N)CCC(N)=O)C(=O)N[C@@H](CCC(N)=O)C(=O)O [QSTQ] (H-QSTQ-OH; N-terminus and C-terminus assumed)

- optical density at 330 nm relative to solution without peptide (α-synuclein [2]): more than 1.5 times
Compound: AQTQ [tetramer peptide from in silico panning, rank 4]
- affinity to α-synuclein (in words) (α-synuclein [4]): bound to α-synuclein with similar affinity of QSTQ

- KD relative to KD of QSTQ (α-synuclein [4]; peptide immobilized on CM5 chip, alanine residue added to N-terminal): more than 10 times
Compound: PTYF

Continued, compound first:

Compound: N[C@@H](Cc1ccc(O)c(O)c1)C(=O)O [L-DOPA]
- cytotoxicity (in words) (α-synuclein [1]): enhance cytotoxicity

Compound: GAVVTGVTAVA [α-synuclein 68–78, partial peptide in NAC, the target 11-mer peptide]
- amyloid-like fibril formation by itself (in words) [5]: form amyloid-like fibrils by themselves

Compound: GSQQ [tetramer peptide from in silico panning, rank 2]
- affinity to α-synuclein (in words) (α-synuclein [4]): lower affinity than QSTQ and AQTQ

Compound: SQTQ [tetramer peptide from in silico panning, rank 3]
- affinity to α-synuclein (in words) (α-synuclein [4]): lower affinity than QSTQ and AQTQ
